Tests used:
[1] = test system: wild oat; assay: Test Example 4: herbicidal effect by soil treatment (Table 19, symbol I); type: in vivo, wild oat (Avena fatua)
Method in brief: (§1)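 Step 1: sow seeds in sterilized diluvial soil, cover ~1.5 cm. Step 2: spray diluted emulsion onto soil surface at predetermined rate. Step 3: greenhouse, 25–30° C, three weeks. Step 4: grade effect on each plant by earlier criteria.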

[2] = test system: blackgrass; assay: Test Example 4: herbicidal effect by soil treatment (Table 19, symbol J); type: in vivo, blackgrass (Alopecurus myosuroides)
Method in brief: as §1

[3] = test system: velvetleaf; assay: Test Example 4: herbicidal effect by soil treatment (Table 19, symbol M); type: in vivo, velvetleaf (Abutilon theophrasti)
Method in brief: as §1

[4] = test system: barnyard grass; assay: Test Example 3: herbicidal effect by foliage application, Wagner pot (Table 18, symbol H); type: in vivo, barnyard grass (Echinochloa crus-galli)
Method in brief: (§2)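 Plants were sown in alluvial soil held under 0.1–0.5 cm standing water and grown 14 days in a greenhouse at 25–30 °C. An emulsifiable formulation, water-diluted to the set dose, was then sprayed onto the foliage, and effects were scored three weeks later using previously defined criteria.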

[5] = test system: lambsquarters; assay: Test Example 4: herbicidal effect by soil treatment (Table 19, symbol O); type: in vivo, lambsquarters (Chenopodium album)
Method in brief: as §1

[6] = test system: green foxtail; assay: Test Example 4: herbicidal effect by soil treatment (Table 19, symbol G); type: in vivo, green foxtail (Setaria viridis)
Method in brief: as §1

[7] = test system: barnyard grass; assay: Test Example 5: herbicidal effect by foliage application, plastic box (Table 20, symbol H); type: in vivo, barnyard grass (Echinochloa crus-galli); details: foliage application, 320 g/ha
Method in brief: (§3)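 Foliar spray test: emulsion formulation diluted in water to a set application rate, sprayed onto 14-day-old plants raised in diluvial soil at 25° C to 30° C under glass. Both herbicidal effect and crop effect rated visually three weeks later.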

[8] = test system: Italian ryegrass; assay: Test Example 4: herbicidal effect by soil treatment (Table 19, symbol K); type: in vivo, Italian ryegrass (Lolium multiflorum)
Method in brief: as §1

[9] = test system: Chinese sprangletop; assay: Test Example 3: herbicidal effect by foliage application, Wagner pot (Table 18, symbol D); type: in vivo, chinese sprangletop (Leptochloa chinensis)
Method in brief: as §2

[10] = test system: southern crabgrass; assay: Test Example 4: herbicidal effect by soil treatment (Table 19, symbol F); type: in vivo, southern crabgrass (Digitaria ciliaris)
Method in brief: as §1

[11] = test system: barnyard grass; assay: Test Example 4: herbicidal effect by soil treatment (Table 19, symbol H); type: in vivo, barnyard grass (Echinochloa crus-galli)
Method in brief: as §1

[12] = test system: southern crabgrass; assay: Test Example 5: herbicidal effect by foliage application, plastic box (Table 20, symbol F); type: in vivo, southern crabgrass (Digitaria ciliaris); details: foliage application, 320 g/ha
Method in brief: as §3

[13] = test system: rice flat sedge; assay: Test Example 3: herbicidal effect by foliage application, Wagner pot (Table 18, symbol E); type: in vivo, rice flat sedge (Cyperus iria)
Method in brief: as §2

[14] = test system: wild oat; assay: Test Example 5: herbicidal effect by foliage application, plastic box (Table 20, symbol I); type: in vivo, wild oat (Avena fatua); details: foliage application, 320 g/ha
Method in brief: as §3

[15] = test system: lambsquarters; assay: Test Example 5: herbicidal effect by foliage application, plastic box (Table 20, symbol O); type: in vivo, lambsquarters (Chenopodium album); details: foliage application, 320 g/ha
Method in brief: as §3

[16] = test system: persian speedwell; assay: Test Example 5: herbicidal effect by foliage application, plastic box (Table 20, symbol R); type: in vivo, Persian speedwell (Veronica persica); details: foliage application, 320 g/ha
Method in brief: as §3

[17] = test system: windgrass; assay: Test Example 5: herbicidal effect by foliage application, plastic box (Table 20, symbol L); type: in vivo, windgrass (Apera spica-venti); details: foliage application, 320 g/ha
Method in brief: as §3

[18] = test system: velvetleaf; assay: Test Example 5: herbicidal effect by foliage application, plastic box (Table 20, symbol M); type: in vivo, velvetleaf (Abutilon theophrasti); details: foliage application, 320 g/ha
Method in brief: as §3

[19] = test system: chickweed; assay: Test Example 4: herbicidal effect by soil treatment (Table 19, symbol P); type: in vivo, common chickweed (Stellaria media)
Method in brief: as §1

[20] = test system: persian speedwell; assay: Test Example 4: herbicidal effect by soil treatment (Table 19, symbol R); type: in vivo, Persian speedwell (Veronica persica)
Source text: [Test Example 4] Herbicidal Effect Test by Soil Treatment
Sterilized diluvial soil was placed in a plastic box having a length of 21 cm, a width of 13 cm, and a depth of 7 cm. The seeds of each of southern crabgrass, green foxtail, barnyard grass, wild oat, blackgrass, Italian ryegrass, windgrass, velvetleaf, redroot pigweed, lambsquarters, chickweed, false cleavers, persian speedwell, corn, soybean, rice, wheat, beet, and rapeseed were sowed in a spot-like manner and covered with the soil having a thickness of about 1.5 cm. Subsequently, the emulsion agent of the compound of the present invention prepared according to Formulation Example 2 was diluted with water so as to achieve a predetermined herbicide amount, and the diluted emulsion agent was uniformly applied to the surface of the soil with a small-sized spray. The plastic box was placed in a greenhouse at 25° C. to 30° C. for growth of the plants. Three weeks after the herbicide application, the effect of the herbicide on each plant was evaluated according to the criteria of Test Example 1.

[21] = test system: green foxtail; assay: Test Example 5: herbicidal effect by foliage application, plastic box (Table 20, symbol G); type: in vivo, green foxtail (Setaria viridis); details: foliage application, 320 g/ha
Method in brief: as §3

[22] = test system: Italian ryegrass; assay: Test Example 5: herbicidal effect by foliage application, plastic box (Table 20, symbol K); type: in vivo, Italian ryegrass (Lolium multiflorum); details: foliage application, 320 g/ha
Method in brief: as §3

[23] = test system: blackgrass; assay: Test Example 5: herbicidal effect by foliage application, plastic box (Table 20, symbol J); type: in vivo, blackgrass (Alopecurus myosuroides); details: foliage application, 320 g/ha
Method in brief: as §3

[24] = test system: redroot pigweed; assay: Test Example 4: herbicidal effect by soil treatment (Table 19, symbol N); type: in vivo, redroot pigweed (Amaranthus retroflexus); details: 320 g/ha
Method in brief: as §1

[25] = test system: chickweed; assay: Test Example 5: herbicidal effect by foliage application, plastic box (Table 20, symbol P); type: in vivo, common chickweed (Stellaria media); details: foliage application, 320 g/ha, evaluated three weeks after application
Method in brief: as §3

[26] = test system: redroot pigweed; assay: Test Example 5: herbicidal effect by foliage application, plastic box (Table 20, symbol N); type: in vivo, redroot pigweed (Amaranthus retroflexus); details: foliage application, 320 g/ha, evaluated three weeks after application
Method in brief: as §3

[27] = amount of applied herbicide 320 g/ha
[28] = evaluated three weeks after application

## COCCC(=O)Oc1c(C)nn(C)c(=O)c1-c1c(-c2ccc(F)cc2)sc2ccc(F)cc12 [2-003]
[1]; 320 g/ha
  herbicidal effect rating, I: wild oat: 0 (Herbicidal rate of 5% or less (almost no effect))
[2]; 320 g/ha
  herbicidal effect rating, J: blackgrass: 3 (Herbicidal rate of 40% or more and less than 70%)
[3]; 320 g/ha
  herbicidal effect rating, M: velvetleaf: 5 (Herbicidal rate of 90% or more (almost completely withered))
[4]; 320 g/ha
  herbicidal effect on H (barnyard grass), rating 0-5: 5 (Herbicidal rate of 90% or more (almost completely withered))
[5]; 320 g/ha
  herbicidal effect rating, O: lambsquarters: 5 (Herbicidal rate of 90% or more (almost completely withered))
[6]; 320 g/ha
  herbicidal effect rating, G: green foxtail: 5 (Herbicidal rate of 90% or more (almost completely withered))
[7]; 3 weeks after application
  effect on barnyard grass (H): 5 (Herbicidal rate of 90% or more (almost completely withered))
[8]; 320 g/ha
  herbicidal effect rating, K: Italian ryegrass: 5 (Herbicidal rate of 90% or more (almost completely withered))
[9]; 320 g/ha
  herbicidal effect on D (Chinese sprangletop), rating 0-5: 3 (Herbicidal rate of 40% or more and less than 70%)
[10]; 320 g/ha
  herbicidal effect rating, F: southern crabgrass: 5 (Herbicidal rate of 90% or more (almost completely withered))
[11]; 320 g/ha
  herbicidal effect rating, H: barnyard grass: 5 (Herbicidal rate of 90% or more (almost completely withered))
[12]; 3 weeks after application
  effect on southern crabgrass (F): 5 (Herbicidal rate of 90% or more (almost completely withered))
[13]; 320 g/ha
  herbicidal effect on E (rice flat sedge), rating 0-5: 5 (Herbicidal rate of 90% or more (almost completely withered))
[14]; 3 weeks after application
  effect on wild oat (I): 2 (Herbicidal rate of 20% or more and less than 40%)
[15]; 3 weeks after application
  effect on lambsquarters (O): 5 (Herbicidal rate of 90% or more (almost completely withered))
[16]; 3 weeks after application
  effect on persian speedwell (R): 5 (Herbicidal rate of 90% or more (almost completely withered))
[17]; 3 weeks after application
  effect on windgrass (L): 4 (Herbicidal rate of 70% or more and less than 90%)
[18]; 3 weeks after application
  effect on velvetleaf (M): 5 (Herbicidal rate of 90% or more (almost completely withered))
[19]; 320 g/ha
  herbicidal effect rating, P: chickweed: 3 (Herbicidal rate of 40% or more and less than 70%)
[20]; 320 g/ha
  herbicidal effect rating, R: persian speedwell: 4 (Herbicidal rate of 70% or more and less than 90%)
[21]; 3 weeks after application
  effect on green foxtail (G): 5 (Herbicidal rate of 90% or more (almost completely withered))
[22]; 3 weeks after application
  effect on Italian ryegrass (K): 4 (Herbicidal rate of 70% or more and less than 90%)
[23]; 3 weeks after application
  effect on blackgrass (J): 4 (Herbicidal rate of 70% or more and less than 90%)
[24]
  herbicidal effect rating, N: redroot pigweed: 5 (Herbicidal rate of 90% or more (almost completely withered))

## CCCC(=O)Oc1c(C)nn(C)c(=O)c1-c1c(-c2ccccc2)sc2ccc(C)cc12 [2-133]
[1]; [27]
  I: wild oat, herbicidal effect rating: 0 (Herbicidal rate of 5% or less (almost no effect))
[2]; [27]
  J: blackgrass, herbicidal effect rating: 0 (Herbicidal rate of 5% or less (almost no effect))
[3]; [27]
  M: velvetleaf, herbicidal effect rating: 0 (Herbicidal rate of 5% or less (almost no effect))
[4]; [27]
  herbicidal effect on H: barnyard grass: 0 (Herbicidal rate of 5% or less (almost no effect))
[5]; [27]
  O: lambsquarters, herbicidal effect rating: 5 (Herbicidal rate of 90% or more (almost completely withered))
[6]; [27]
  G: green foxtail, herbicidal effect rating: 0 (Herbicidal rate of 5% or less (almost no effect))
[7]; [28]
  herbicidal effect on H: barnyard grass: 0 (Herbicidal rate of 5% or less (almost no effect))
[8]; [27]
  K: Italian ryegrass, herbicidal effect rating: 0 (Herbicidal rate of 5% or less (almost no effect))
[9]; [27]
  herbicidal effect on D: Chinese sprangletop: 0 (Herbicidal rate of 5% or less (almost no effect))
[10]; [27]
  F: southern crabgrass, herbicidal effect rating: 0 (Herbicidal rate of 5% or less (almost no effect))
[11]; [27]
  H: barnyard grass, herbicidal effect rating: 0 (Herbicidal rate of 5% or less (almost no effect))
[12]; [28]
  herbicidal effect on F: southern crabgrass: 0 (Herbicidal rate of 5% or less (almost no effect))
[13]; [27]
  herbicidal effect on E: rice flat sedge: 5 (Herbicidal rate of 90% or more (almost completely withered))
[14]; [28]
  herbicidal effect on I: wild oat: 0 (Herbicidal rate of 5% or less (almost no effect))
[15]; [28]
  herbicidal effect on O: lambsquarters: 4 (Herbicidal rate of 70% or more and less than 90%)
[16]; [28]
  herbicidal effect on R: persian speedwell: 2 (Herbicidal rate of 20% or more and less than 40%)
[17]; [28]
  herbicidal effect on L: windgrass: 0 (Herbicidal rate of 5% or less (almost no effect))
[18]; [28]
  herbicidal effect on M: velvetleaf: 5 (Herbicidal rate of 90% or more (almost completely withered))
[19]; [27]
  P: chickweed, herbicidal effect rating: 5 (Herbicidal rate of 90% or more (almost completely withered))
[20]; [27]
  R: persian speedwell, herbicidal effect rating: 0 (Herbicidal rate of 5% or less (almost no effect))
[21]; [28]
  herbicidal effect on G: green foxtail: 2 (Herbicidal rate of 20% or more and less than 40%)
[25]
  herbicidal effect on P: chickweed: 5 (Herbicidal rate of 90% or more (almost completely withered))
[22]; [28]
  herbicidal effect on K: Italian ryegrass: 3 (Herbicidal rate of 40% or more and less than 70%)
[26]
  herbicidal effect on N: redroot pigweed: 5 (Herbicidal rate of 90% or more (almost completely withered))
[23]; [28]
  herbicidal effect on J: blackgrass: 0 (Herbicidal rate of 5% or less (almost no effect))
